US20160297828A1, “SPIROCYCLIC COMPOUNDS CONTAINING SPIRO[INDOLYL-3,1'-PYRROLO[3,4-C]PYRROLE] CORE AND SULPHUR-CONTAINING AMINO ACID RESIDUES” (priority 2013, published 2016)
Where “and” joins values, the source holds several entries; their conditions need not be identical. Equal entries are not always repeated.

Experiments:
[1] = system: rats with intracerebral hemorrhage; assay: Neurological deficit (C. P. McGrow stroke-index scale) in rats with intracerebral hemorrhage; type: in vivo; conditions: n = 15
Method: (§1) Neuroprotective effect of 3,2′-spiro-pyrrolo-2-oxindole derivative (SI-86 compound) was studied on IUD model of moderate severity modeled under propofol anesthesia (60 mg/kg intraperitoneally (ip)) by autoblood administration into the brain internal capsule (stereotactic coordinates of the projection: H=7.0 mm, L=3.0 mm, A=1.5 mm from bregma) ([…]) (Method for reproduction of intracerebral hemorrhage in rats/O. K. Yarosh, S. V. Kyrychenko, S. P. Halimonchyk [et al.]//Circulation and hemostasis.-2005.-No. 1.-P. 77-81). The chosen model allows to reproduce clinical pattern of […] and is adequate for clinical study of potential neuroprotective agents.
(§2) As comparators the following drugs were used: mexydol (“Mexydol” UC Pharmasoft, Russia), 100 mg/kg; citicoline (“Somazina” Ferrer International, SA, Spain), 250 mg/kg; aktovegin (“Aktovegin”, Nycomed, Austria), 16 mg/kg pyracetam (“Pyracetam” Darnitsa, Ukraine), 400 mg/kg. According to the latest clinical guidelines regarding the treatment of patients with CVA approved by the Ministry of Health of Ukraine (Order No. 602 dated 3 Aug. 2012), all these drugs are allowed to be included into schemes for intensive patients therapy with CVA as neuroprotective agents. They were used at recommended doses for preclinical studies (McGrow C. P. Experimental Cerebral Infarction Effects of Pentobarbital in Mongolian Gerbils/C. P. McGrow//Arch. Neurol.-1977.-Vol. 34, No. 6.-P. 334-336). Experimental therapy of acute cerebral ischemia with SI-86 compound and comparator started 1 hour after IUD once a day for 21 days. The SI-86 derivative was investigated in conventionally effective dose of 10 mg/kg […] (iv)-dose that according to the results of our previous study provides maximum antihypoxic activity of SI-86 compound. Reference drugs were injected intraperitoneally (ip). Rats of control pathology group were injected by autoblood and as therapy 0.9% NaCI solution was administered calculated for 2 ml/kg […].
Neurological deficit in animals with acute CVA respectively in acute (4th day) and recovery (21 st day) periods was measured on C. P. McGrow stroke-index scale. The state severity was determined by amount of relevant points: to 3 points-mild, 3 to 7 points-average, above 7 points-severe degree. Pareses, paralyses of limbs, tremors, circus movement, ptoses, lateral positions, ability of rats to be maintained at the core of 15 cm diameter, rotating at the rate of 3 rpm were noted. The animals were tested daily by displaying the amount of points:
one-sided semi-ptosis—0.5 points; one-sided ptosis—1 point; tremor—0.5 points; circus movements—0.5 points; pareses of limbs (for each limb)—1 point; paralyses of limbs (for each limb)—2 points; lateral position—3 points; disability to maintain on rotating rod during 4 minutes—3 points.

[2] = system: 11β-corticosterone; assay: 11β-corticosterone level in venous blood of rats with bilateral carotid occlusion (ELISA); type: in vivo, Wistar rats; conditions: for dynamics in percents in relation to control pathology group / dynamics in percents in relation to the group of pseudo-operated animals / 11β-corticosterone level in venous blood: BCO
Method: The neuroprotective effect of 3,2′-spiro-pyrrolo-2-oxindole derivative (SI-86 compound) was studied in Wistar rats on a model of cerebrovascular accident (CVA) of ischemic type in archencephalic pool forming bilateral carotid occlusion (BCO) by carotid artery ligation. The ligations for common carotid arteries was imposed under propofol anesthesia at a dose of 60 mg/kg intraperitoneally (ip), using surgical access to the front of the neck cutting through its white line. The chosen model allows to reproduce the clinical pattern of ischemic stroke and is adequate for clinical study of potential neuroprotective substances (Drug discovery and Evaluation: pharmacological assays/H. Gerhard Vogel (ed.).-2nd ed. 1453p.).
The derivative of 3,2′-spiro-pyrrolo-2-oxindole was investigated in conventionally effective dose of 10 mg/kg […] (iv)—dose which is provided maximum antihypoxic activity of SI-86 compound by the results of our previous study. The reference drugs were injected intraperitoneally (ip). BCO was applied to the rats of control pathology and 0.9% NaCI solution was administered as therapy calculated for 2 ml/kg ip.
(§3) Pseudo-operated rats were exposed to all interventions (anesthesia, skin incision, dissection of vessels) except arteries ligation that leveled traumatic impact of experimental conditions.
(§4) To determine a corticosterone level (species-specific cortisol analogue in rats, which is also a substrate for 11β-HSD1) in the corresponding period (4 th and 21 st CVA day) in rat by sagittal sinus puncture, blood was sampled (0.2-0.4 ml). The cortisol level was measured by ELISA using a CORTICOSTERONEE KIT set (Germany) on the instrument of the company “Hipson” (Czech Republic).

[3] = system: rats with intracerebral hemorrhage; assay: Conditioned response of passive avoidance (CRPA) in rats with intracerebral hemorrhage; type: in vivo; conditions: 21st day, n = 15
Method: as §1, §2
Evaluation of the ability of animals to learn and memorize of aversive stimulus was examined in the test of conditioned response of passive avoidance (CRPA). The technique is based on innate rat instinct to limited shadowy space. The study in rats was conducted in two-compartment unit consisted of two sections—light and dark. An animal was arranged into light compartment, fixing latency time for entering into the dark compartment, wherein rat received current irritation and ran in the light compartment. CRPA retention was tested every other day under latency time change of rat entering into the dark compartment. Also the number of animals was noted not fully entered the dark chamber. Cerebroprotective efficiency criteria of studied compounds were also animal death term (days) and their mortality rate (in %).

[4] = system: 11β-corticosterone; assay: 11β-corticosterone level in venous blood of pseudo-operated rats (ELISA); type: in vivo, Wistar rats; conditions: pseudo-operated animals + SI-86 10 mg/kg iv
Method: as §3, §4
To establish the effect of course administration of SI-86 compound on steroid synthesis in animals without cerebral ischemia the dynamics of its level in pseudo-operated rats in the same period was additionally determined.

CSCC[C@@H]1N[C@@]2(C(=O)Nc3ccccc32)[C@@H]2C(=O)N(c3ccc(C)cc3)C(=O)[C@H]12 [SI-86, 5′-(4-Methylphenyl)-3′-[2-(methylthio)ethyl]-3a′,6a′-dihydro-2′H-spiro[indole-3,1′-pyrrolo[3,4-c]pyrrol]-2,4′,6′(1H,3′H,5′H)-trione]
neurological deficit, average point under C. P. McGrow scale ([1]; day 4, SI-86 10 mg/kg iv, mexydol 100, citocoline 250, actovegin 16, pyracetam 400 mg/kg ip): 4.1 points and 4.10 ± 0.32°*^#•$ points | neurological deficit, average point under C. P. McGrow scale ([1]; day 21, same doses): 3.1 points and 3.10 ± 0.33°*^#&$ points | dynamics in percents in relation to control pathology group ([2]; day 4): [−60.2%] | dynamics in percents in relation to the group of pseudo-operated animals ([2]; day 4): (+54.8%) | 11β-corticosterone level in venous blood ([2]; day 4, SI-86 10 mg/kg iv, citocoline 250 mg/kg ip): 186.12 ± 1.43°*^# ng/ml | dynamics in percents in relation to control pathology group ([2]; day 21): [−57.1%] | dynamics in percents in relation to the group of pseudo-operated animals ([2]; day 21): (+55.2%) | 11β-corticosterone level in venous blood ([2]; day 21, same doses): 144.67 ± 3.43°*^#• ng/ml | ability to reduce corticosterone content, better than citocoline ([2]; CVA acute period): 1.46 times | corticosterone concentration in sagittal sinus blood decreased in relation to the control pathology group ([2]; after 96 hours): 60.2% | corticosterone concentration in sagittal sinus blood decreased in relation to the control pathology group ([2]; after 21 days): 57.1% | ability to reduce corticosterone content, better than citocoline ([2]; recovery period): 1.62 times | Latent period for entrance into dark compartment, prior study ([3]; SI-86 10 mg/kg iv, mexydol 100, citocoline 250, actovegin 16, pyracetam 400 mg/kg ip): 9.50 ± 0.34°*^#•$ s | Latent period for entrance into dark compartment, 24 hours after study ([3]; same doses): 127.10 ± 2.71°*^#•$ s | 11β-corticosterone level in venous blood ([4]; day 4): 81.95 ± 0.61 ng/mL | dynamics in percents in relation to the group of pseudo-operated animals ([4]; day 4): (−31.9%) | 11β-corticosterone level in venous blood ([4]; day 21): 83.02 ± 4.25 ng/mL | dynamics in percents in relation to the group of pseudo-operated animals ([4]; day 21): (−10.2%)
